Patent publication US20260327191A1, “GSK3a INHIBITORS AND METHODS OF USE THEREOF” (Blueprint Medicines Corporation, priority 2023, published 2026)

Legend:
[1] = biological target: T1, GSK3B (Homo sapiens, UniProt P49841); test: In vitro enzymatic activity assay, GSK3β; format: biochemical; parameters: Full length human GSK3α or GSK3B expressed as N-terminal GST fusion proteins; GST (N); purchased Carna Biosciences (Japan); host or cells: baculovirus host; settings: 1.0 mM ATP, 1.0 μM peptide substrate, 120 min, 25° C, read-out: Enzyme GSK3β (IC50)
T1 sequence (P49841 whole entry, the tested form may be a part): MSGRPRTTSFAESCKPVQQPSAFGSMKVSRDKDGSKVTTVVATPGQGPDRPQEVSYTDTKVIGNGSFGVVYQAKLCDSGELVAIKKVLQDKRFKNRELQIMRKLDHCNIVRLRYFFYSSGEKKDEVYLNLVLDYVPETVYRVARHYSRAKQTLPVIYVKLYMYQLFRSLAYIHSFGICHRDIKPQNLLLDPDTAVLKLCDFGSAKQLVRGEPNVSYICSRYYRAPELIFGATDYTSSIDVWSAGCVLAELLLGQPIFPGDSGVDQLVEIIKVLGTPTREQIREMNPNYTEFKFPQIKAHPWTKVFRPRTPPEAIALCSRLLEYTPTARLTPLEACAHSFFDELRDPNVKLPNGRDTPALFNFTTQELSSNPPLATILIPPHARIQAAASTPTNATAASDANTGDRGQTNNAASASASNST

[2] = biological target: T2, human GSK3α (Homo sapiens, UniProt P49840); test: In vitro enzymatic activity assay, GSK3α; format: biochemical; settings: 1.0 mM ATP, 1.0 μM peptide substrate, 120 min, 25° C, read-out: Enzyme GSK3α (IC50)
T2 construct: Full length human GSK3α or GSK3B expressed as N-terminal GST fusion proteins; GST (N); purchased Carna Biosciences (Japan); host or cells: baculovirus host
T2 sequence (P49840 whole entry, the tested form may be a part): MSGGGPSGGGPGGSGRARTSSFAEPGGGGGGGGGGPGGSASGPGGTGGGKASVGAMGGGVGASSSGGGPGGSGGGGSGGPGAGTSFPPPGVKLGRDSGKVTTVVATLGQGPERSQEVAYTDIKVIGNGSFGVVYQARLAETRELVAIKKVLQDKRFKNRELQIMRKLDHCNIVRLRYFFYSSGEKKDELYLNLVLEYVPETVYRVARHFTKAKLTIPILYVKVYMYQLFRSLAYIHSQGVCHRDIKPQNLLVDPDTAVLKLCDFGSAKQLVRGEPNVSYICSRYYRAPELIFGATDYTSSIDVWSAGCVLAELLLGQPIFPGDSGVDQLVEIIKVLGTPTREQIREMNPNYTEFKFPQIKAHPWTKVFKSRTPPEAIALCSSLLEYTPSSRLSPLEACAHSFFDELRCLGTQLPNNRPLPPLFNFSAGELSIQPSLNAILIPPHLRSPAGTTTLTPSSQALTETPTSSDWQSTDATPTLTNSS

[3] = biological target: T3, GSK3A (Homo sapiens, UniProt P49840); test: NanoBRET cellular target engagement assay, Nanoluc-GSK3A in HEK293 cells; format: cell-based; settings: NanoBRET GSK3α IC50, HEK293 cells, tracer K-8, 2 hours, 37° C
T3 construct: expressed in transfected cells
T3 sequence (P49840 whole entry): as the sequence (P49840 whole entry, the tested form may be a part) above

[4] = biological target: T1, GSK3B; test: NanoBRET cellular target engagement assay, Nanoluc-GSK3B in HEK293 cells; format: cell-based; parameters: expressed in transfected cells; settings: NanoBRET GSK3β IC50, HEK293 cells, tracer K-8, 2 hours, 37° C

Compound	IC50 [1] [nM]	IC50 [2] [nM]	IC50 [3] [nM]	IC50 [4] [nM]
CNC(COC)c1cncc(NC(=O)c2c(N)ncn(-c3c(Cl)cc(C(F)(F)F)cc3Cl)c2=O)c1 (single isomer, unassigned) [Example 121, (R)-4-amino-1-(2,6-dichloro-4-(trifluoromethyl)phenyl)-N-(5-(2-methoxy-1-(methylamino)ethyl)pyridin-3-yl)-6-oxo-1,6-dihydropyrimidine-5-carboxamide or (S)-4-amino-1-(2,6-dichloro-4-(trifluoromethyl)phenyl)-N-(5-(2-methoxy-1-(methylamino)ethyl)pyridin-3-yl)-6-oxo-1,6-dihydropyrimidine-5-carboxamide]	306	3.8	3.4	395
CNC(COC)c1cncc(NC(=O)c2c(N)ncn(-c3c(Cl)cc(C(F)(F)F)cc3Cl)c2=O)c1 (single isomer, unassigned) [Example 122, (R)-4-amino-1-(2,6-dichloro-4-(trifluoromethyl)phenyl)-N-(5-(2-methoxy-1-(methylamino)ethyl)pyridin-3-yl)-6-oxo-1,6-dihydropyrimidine-5-carboxamide or (S)-4-amino-1-(2,6-dichloro-4-(trifluoromethyl)phenyl)-N-(5-(2-methoxy-1-(methylamino)ethyl)pyridin-3-yl)-6-oxo-1,6-dihydropyrimidine-5-carboxamide]	327	5.3	5	314
CCCOc1cc(C)c(-n2cnc(N)c(C(=O)Nc3cncc(C(C)N)c3)c2=O)c(C)c1 (single isomer, unassigned) [Example 126, (R)-4-amino-N-(5-(1-aminoethyl)pyridin-3-yl)-1-(2,6-dimethyl-4-propoxyphenyl)-6-oxo-1,6-dihydropyrimidine-5-carboxamide or (S)-4-amino-N-(5-(1-aminoethyl)pyridin-3-yl)-1-(2,6-dimethyl-4-propoxyphenyl)-6-oxo-1,6-dihydropyrimidine-5-carboxamide]	702	14.7	7.9	506
CCC(N)c1cncc(NC(=O)c2c(N)ncn(-c3c(C)cc(C(F)F)cc3C)c2=O)c1 (single isomer, unassigned) [Example 128, (R)-4-amino-N-(5-(1-aminopropyl)pyridin-3-yl)-1-(4-(difluoromethyl)-2,6-dimethylphenyl)-6-oxo-1,6-dihydropyrimidine-5-carboxamide or (S)-4-amino-N-(5-(1-aminopropyl)pyridin-3-yl)-1-(4-(difluoromethyl)-2,6-dimethylphenyl)-6-oxo-1,6-dihydropyrimidine-5-carboxamide]	1180	19	7.7	546

These reach a lower IC50 [1]. Values come first.

IC50 [1] [nM]	IC50 [2] [nM]	IC50 [3] [nM]	IC50 [4] [nM]	Compound
105	2.1	1.2	81.7	CCOCc1cc(Cl)c(-n2cnc(N)c(C(=O)Nc3cncc(C(N)CC)c3)c2=O)c(Cl)c1 (single isomer, unassigned) [Example 129, (R)-4-amino-N-(5-(1-aminopropyl)pyridin-3-yl)-1-(2,6-dichloro-4-(ethoxymethyl)phenyl)-6-oxo-1,6-dihydropyrimidine-5-carboxamide or (S)-4-amino-N-(5-(1-aminopropyl)pyridin-3-yl)-1-(2,6-dichloro-4-(ethoxymethyl)phenyl)-6-oxo-1,6-dihydropyrimidine-5-carboxamide]
104	2.2	1.4	81.1	CNCc1cncc(NC(=O)c2c(N)ncn(-c3c(Cl)cc(C(F)CF)cc3Cl)c2=O)c1 (single isomer, unassigned) [Example 117, (R)-4-amino-1-(2,6-dichloro-4-(1,2-difluoroethyl)phenyl)-N-(5-((methylamino)methyl)pyridin-3-yl)-6-oxo-1,6-dihydropyrimidine-5-carboxamide or (S)-4-amino-1-(2,6-dichloro-4-(1,2-difluoroethyl)phenyl)-N-(5-((methylamino)methyl)pyridin-3-yl)-6-oxo-1,6-dihydropyrimidine-5-carboxamide]
